According to the supplement of paper PMC10307832:

How the values were obtained:
Assay in all cases: relative viability (nuclei count vs DMSO), 5 days (fraction); higher = more cells survive
[1] = compound: C1COCCN1CC2=CC(=O)C(=CO2)OCCCCCSC3=C4C=CC(=CC4=NC=C3)C(F)(F)F [EHT 1864] + CC1(C)CCC(c2ccc(Cl)cc2)=C(CN2CCN(c3ccc(C(=O)NS(=O)(=O)c4ccc(N[C@H](CCN5CCOCC5)CSc5ccccc5)c(S(=O)(=O)C(F)(F)F)c4)cc3)CC2)C1 [Navitoclax] (partner 0.5 µM)
Procedure, shortened: (§1)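 Cells from lung cancer lines were seeded into 1536-well plates and, one day later, dosed by pin tool. Treatments were either a single drug or a fixed dose of an anchor drug with five library-drug doses (not always all listed) in √10 steps. After 5 days, nuclei were stained in a one-step fixation (final 0.05% Triton X-100, 1% formaldehyde, 1 ug/ml Hoechst) and counted on 4× images, and relative viability is the treated-to-vehicle nuclei ratio, as the median of duplicate plates.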

[2] = compound: C1COCCN1CC2=CC(=O)C(=CO2)OCCCCCSC3=C4C=CC(=CC4=NC=C3)C(F)(F)F [EHT 1864] + CCNC(=O)c1noc(-c2cc(C(C)C)c(O)cc2O)c1-c1ccc(CN2CCOCC2)cc1 [Luminespib] (partner 0.01 µM)
Procedure, shortened: as §1

[3] = compound: C1COCCN1CC2=CC(=O)C(=CO2)OCCCCCSC3=C4C=CC(=CC4=NC=C3)C(F)(F)F [EHT 1864] + COc1cc2c(Oc3ccc(NC(=O)C4(C(=O)Nc5ccc(F)cc5)CC4)cc3F)ccnc2cc1OCCCN1CCOCC1 [Foretinib] (partner 0.25 µM)
Procedure, shortened: as §1

[4] = compound: C1COCCN1CC2=CC(=O)C(=CO2)OCCCCCSC3=C4C=CC(=CC4=NC=C3)C(F)(F)F [EHT 1864] + C[C@]1(O)C[C@@H](c2nc(-c3ccc4ccc(-c5ccccc5)nc4c3)c3c(N)nccn32)C1 [Linsitinib] (partner 1 µM)
Procedure, shortened: as §1

Cell Line: NCI-H2085
- relative viability ([1]; first compound 0.04 µM): 1.03
- relative viability ([1]; first compound 0.1265 µM): 1.11
- relative viability ([1]; first compound 0.4 µM): 1.08
- relative viability ([1]; first compound 1.265 µM): 1.13
- relative viability ([1]; first compound 4 µM): 1.14
- relative viability ([2]; first compound 0.04 µM): 0.432
- relative viability ([2]; first compound 0.4 µM): 0.541
- relative viability ([2]; first compound 1.265 µM): 0.415
- relative viability ([2]; first compound 4 µM): 0.442
- relative viability ([3]; first compound 0.04 µM): 1.13
- relative viability ([3]; first compound 0.4 µM): 0.9
- relative viability ([3]; first compound 1.265 µM): 0.92
- relative viability ([3]; first compound 4 µM): 0.89
- relative viability ([4]; first compound 0.04 µM): 0.87
- relative viability ([4]; first compound 0.1265 µM): 0.816
- relative viability ([4]; first compound 0.4 µM): 0.883
- relative viability ([4]; first compound 1.265 µM): 0.91
- relative viability ([4]; first compound 4 µM): 0.787

Cell Line: NCI-H2087
- relative viability ([1]; first compound 0.04 µM): 0.86
- relative viability ([1]; first compound 0.1265 µM): 0.894
- relative viability ([1]; first compound 0.4 µM): 0.865
- relative viability ([1]; first compound 1.265 µM): 0.829
- relative viability ([1]; first compound 4 µM): 0.743
- relative viability ([2]; first compound 0.04 µM): 0.175
- relative viability ([2]; first compound 0.4 µM): 0.143
- relative viability ([2]; first compound 1.265 µM): 0.168
- relative viability ([2]; first compound 4 µM): 0.135
- relative viability ([3]; first compound 0.04 µM): 1.01
- relative viability ([3]; first compound 0.4 µM): 1
- relative viability ([3]; first compound 1.265 µM): 1.01
- relative viability ([3]; first compound 4 µM): 0.845
- relative viability ([4]; first compound 0.04 µM): 0.88
- relative viability ([4]; first compound 0.1265 µM): 0.865
- relative viability ([4]; first compound 0.4 µM): 0.796
- relative viability ([4]; first compound 1.265 µM): 0.729
- relative viability ([4]; first compound 4 µM): 0.68

Cell Line: NCI-H2126
- relative viability ([1]; first compound 0.04 µM): 0.92
- relative viability ([1]; first compound 0.1265 µM): 0.76
- relative viability ([1]; first compound 0.4 µM): 0.823
- relative viability ([1]; first compound 1.265 µM): 0.853
- relative viability ([1]; first compound 4 µM): 0.814
- relative viability ([2]; first compound 0.04 µM): 0.796
- relative viability ([2]; first compound 0.1265 µM): 0.902
- relative viability ([2]; first compound 0.4 µM): 0.906
- relative viability ([2]; first compound 1.265 µM): 0.879
- relative viability ([2]; first compound 4 µM): 0.866
- relative viability ([3]; first compound 0.04 µM): 1.17
- relative viability ([3]; first compound 0.1265 µM): 1.22
- relative viability ([3]; first compound 0.4 µM): 1.19
- relative viability ([3]; first compound 1.265 µM): 1.22
- relative viability ([3]; first compound 4 µM): 1.22
- relative viability ([4]; first compound 0.04 µM): 0.733
- relative viability ([4]; first compound 0.1265 µM): 0.691
- relative viability ([4]; first compound 0.4 µM): 0.746
- relative viability ([4]; first compound 1.265 µM): 0.726
- relative viability ([4]; first compound 4 µM): 0.72

Cell Line: NCI-H2228
- relative viability ([1]; first compound 0.04 µM): 1.08
- relative viability ([1]; first compound 0.1265 µM): 0.847
- relative viability ([1]; first compound 0.4 µM): 0.755
- relative viability ([1]; first compound 1.265 µM): 0.836
- relative viability ([1]; first compound 4 µM): 0.827
- relative viability ([2]; first compound 0.04 µM): 0.143
- relative viability ([2]; first compound 0.1265 µM): 0.145
- relative viability ([2]; first compound 0.4 µM): 0.182
- relative viability ([2]; first compound 1.265 µM): 0.193
- relative viability ([2]; first compound 4 µM): 0.0861
- relative viability ([3]; first compound 0.04 µM): 0.81
- relative viability ([3]; first compound 0.1265 µM): 0.758
- relative viability ([3]; first compound 0.4 µM): 0.904
- relative viability ([3]; first compound 1.265 µM): 0.836
- relative viability ([3]; first compound 4 µM): 0.9
- relative viability ([4]; first compound 0.04 µM): 0.655
- relative viability ([4]; first compound 0.1265 µM): 0.635
- relative viability ([4]; first compound 0.4 µM): 0.802
- relative viability ([4]; first compound 1.265 µM): 0.661
- relative viability ([4]; first compound 4 µM): 0.478

Cell Line: NCI-H2347
- relative viability ([1]; first compound 0.04 µM): 0.77
- relative viability ([1]; first compound 0.1265 µM): 0.708
- relative viability ([1]; first compound 0.4 µM): 0.812
- relative viability ([1]; first compound 1.265 µM): 0.714
- relative viability ([1]; first compound 4 µM): 0.828
- relative viability ([2]; first compound 0.04 µM): 0.859
- relative viability ([2]; first compound 0.1265 µM): 0.47
- relative viability ([2]; first compound 0.4 µM): 0.401
- relative viability ([2]; first compound 4 µM): 0.745
- relative viability ([3]; first compound 0.04 µM): 0.974
- relative viability ([3]; first compound 0.4 µM): 0.862
- relative viability ([3]; first compound 1.265 µM): 0.363
- relative viability ([3]; first compound 4 µM): 0.809
- relative viability ([4]; first compound 0.04 µM): 0.92
- relative viability ([4]; first compound 0.1265 µM): 0.741
- relative viability ([4]; first compound 0.4 µM): 0.95
- relative viability ([4]; first compound 1.265 µM): 0.941
- relative viability ([4]; first compound 4 µM): 0.999

Cell Line: NCI-H2405
- relative viability ([1]; first compound 0.04 µM): 0.978
- relative viability ([1]; first compound 0.1265 µM): 0.832
- relative viability ([1]; first compound 0.4 µM): 0.965
- relative viability ([1]; first compound 4 µM): 0.725
- relative viability ([2]; first compound 0.04 µM): 0.745
- relative viability ([2]; first compound 0.1265 µM): 0.667
- relative viability ([2]; first compound 0.4 µM): 0.703
- relative viability ([2]; first compound 1.265 µM): 0.581
- relative viability ([2]; first compound 4 µM): 0.603
- relative viability ([3]; first compound 0.04 µM): 1.05
- relative viability ([3]; first compound 0.1265 µM): 1.05
- relative viability ([3]; first compound 0.4 µM): 1.07
- relative viability ([3]; first compound 1.265 µM): 0.999
- relative viability ([3]; first compound 4 µM): 1.13
- relative viability ([4]; first compound 0.04 µM): 0.922
- relative viability ([4]; first compound 0.1265 µM): 0.933
- relative viability ([4]; first compound 0.4 µM): 1.06
- relative viability ([4]; first compound 4 µM): 0.851

Cell Line: NCI-H3122
- relative viability ([1]; first compound 0.04 µM): 1.06
- relative viability ([1]; first compound 0.1265 µM): 1.01
- relative viability ([1]; first compound 0.4 µM): 0.987
- relative viability ([1]; first compound 1.265 µM): 1.06
- relative viability ([1]; first compound 4 µM): 0.987
- relative viability ([2]; first compound 0.04 µM): 0.102
- relative viability ([2]; first compound 0.1265 µM): 0.0742
- relative viability ([2]; first compound 0.4 µM): 0.089
- relative viability ([2]; first compound 1.265 µM): 0.101
- relative viability ([2]; first compound 4 µM): 0.102
- relative viability ([3]; first compound 0.04 µM): 0.938
- relative viability ([3]; first compound 0.1265 µM): 0.983
- relative viability ([3]; first compound 0.4 µM): 0.961
- relative viability ([3]; first compound 1.265 µM): 0.982
- relative viability ([3]; first compound 4 µM): 0.885
- relative viability ([4]; first compound 0.04 µM): 1.03
- relative viability ([4]; first compound 0.1265 µM): 0.977
- relative viability ([4]; first compound 0.4 µM): 0.932
- relative viability ([4]; first compound 1.265 µM): 1.02
- relative viability ([4]; first compound 4 µM): 0.965

Cell Line: PC-3 [JPC-3]
- relative viability ([1]; first compound 0.04 µM): 0.788
- relative viability ([1]; first compound 0.1265 µM): 0.72
- relative viability ([1]; first compound 0.4 µM): 0.849
- relative viability ([1]; first compound 1.265 µM): 0.844
- relative viability ([1]; first compound 4 µM): 0.805
- relative viability ([2]; first compound 0.04 µM): 0.742
- relative viability ([2]; first compound 0.1265 µM): 0.695
- relative viability ([2]; first compound 0.4 µM): 0.664
- relative viability ([2]; first compound 1.265 µM): 0.673
- relative viability ([2]; first compound 4 µM): 0.696
- relative viability ([3]; first compound 0.04 µM): 1.04
- relative viability ([3]; first compound 0.1265 µM): 0.887
- relative viability ([3]; first compound 0.4 µM): 0.943
- relative viability ([3]; first compound 1.265 µM): 0.968
- relative viability ([3]; first compound 4 µM): 0.936
- relative viability ([4]; first compound 0.04 µM): 0.982
- relative viability ([4]; first compound 0.1265 µM): 0.938
- relative viability ([4]; first compound 0.4 µM): 0.942
- relative viability ([4]; first compound 1.265 µM): 0.949
- relative viability ([4]; first compound 4 µM): 0.952
